In series [1] the test system is HSV-2 clinical isolates DT1 and DT2. The conditions noted are these: CaSki cells pretreated.
Description: CaSki cells were pretreated with control buffer or with miltefosine prior to Infection with an acyclovir susceptible (DT1) or acyclovir-resistant (DT2) isolate. Alternatively cells were pretreated with control buffer and acyclovir (dose) was added to the overlay media.
The HSV-2 clinical isolates 4674, DT1 (acyclovir susceptible) and DT2 (acyclovir resistant) were propagated on CaSki cells (Segarra, 2011)(Oram, 2000).
For plaque assays, cells were exposed to serial dilutions of virus for 1 h and then washed three times with phosphate buffered saline (PBS), pH 7.4, and overlaid with 199 medium containing 1% pooled human IgG. Plaques were counted by immunoassay using an anti-human IgG antibody peroxidase conjugate (Calbiochem) (Herold, 1991). In select experiments cells were pretreated with drugs that block Akt signaling or acyclovir was added to the overlay medium.
The subject of series [2] is HSV-induced Ca2+ response. Nature of the series: Calcium kinetic measurements (fura-2 fluorometry) in CaSki cells. Format: cell-based, human. The procedure:
FIG. 4A-4E: Akt is required for HSV-induced calcium release and treatment with the ionophore, ionomycin, partially overcomes the block to infection in Akt-silenced cells. CaSki cells were loaded with Calcium Green 72 h post-transfection with the indicated siRNA and synchronously mock-infected or infected with purified HSV-2(G). Live images were acquired 3 min post-temperature shift to 37° C. For these xyz images, the plasma membranes are red (medium gray in grayscale), nuclei are blue (darkest gray in grayscale), and Ca^2+ is green (lighter gray in grayscale); colocalization of Ca^2+ and plasma membrane is yellow (lightest gray in grayscale). Representative images from 4 independent experiments are shown; the grid bars indicate a distance of 9.2 micrometers (a). Transfected cells were loaded with fura-2, infected with purified HSV-2 (moi 2 pfu/cell) or mock-infected and the kinetics of Ca^2+ response monitored. The mean intracellular [Ca^2+] for 5×10^4 cells over the first 30 minutes was quantified; control cells were also pretreated with wortmannin or miltefosine and then infected with HSV-2 (b). The cumulative [Ca^2+] released over 1 hour was calculated from 4 wells, each containing 5×10^4 cells (mock-infected, HSV-2 infected in the absence or presence of wortmannin or miltefosine, or following treatment of uninfected cells with 1 μM of ionomycin) (c). […]

Series [3] relates to Akt. Nature of the series: Western blot of HSV-induced Akt phosphorylation (pS473-Akt1/2/3) in HaCAT cells. The conditions noted are these: HaCAT cells pretreated with drug, HSV-2(G) moi 10 pfu/cell. Format: cell-based, human. For orientation: A western blot detects proteins with antibodies after separation by electrophoresis.
In series [4] the test system is HSV-2(4674). The series can be described thus: Ganglion-epithelial cell ex vivo co-culture model.
Description: Sacral ganglia were extracted from mice on day 7 following intravaginal infection with the indicated viral inoculum and co-cultured ex vivo with Vero cells in medium containing DMSO or 20 μM miltefosine. Culture supernatants were collected on the indicated days post-co-culture and viral growth monitored by plaque assay. Results are presented as pfu/ml (mean±sd) obtained from two independent experiments; each with sacral ganglia (d).
Sacral ganglia were removed from mice that had been vaginally infected with 5×10^4 or 5×10^5 pfu of HSV-2 on Day 7 and were then co-cultured with Vero cells in the absence or presence of 20 μM miltefosine. Media was removed on the indicated days post-co-culture and assayed for the presence of infectious virus by titering on Vero cells.
Ganglion-epithelial cell ex vivo co-cultures: Seven days pi, sacaral ganglia were excised from animals that been intravaginally infected with 5×10^4 or 5×10^5 pfu of HSV-2(4674). The tissue was co-cultured with confluent Vero cells in 60-mm Petri dishes containing DMEM supplemented with 0.1% DMSO (control) or with 20 μM of miltefosine. Culture supernatants were collected on days 2-7 post-co-culture and concentration of virus released into the media determined by plaque assay on Vero cells.
The test system of series [5] is HSV-1 K26GFP. Nature of the series: Viral entry by confocal microscopy with HSV-1 K26GFP in CaSki cells. Format: cell-based. The conditions noted are these: CaSki cells pretreated with drug. The procedure:
(§1) FIG. 3A-3C: Silencing of Akt inhibits viral entry independent of viral binding. Transfected CaSki cells were exposed to serial dilutions of HSV-2(G) at the moi (pfu/cell) indicated for 5 h at 4° C. The cell-bound viral particles were detected by analyzing Western blots of cell lysates for gD; blots were also probed with antibodies to total Akt (to assess silencing) and β-actin (control for protein loading) (a). Cells were transfected with siControl or siAkt123 and silencing confirmed by preparing Western blots of cell lysates 48 h post-transfection and probing for total Akt and β-actin expression (b). The siRNA-transfected cells were inoculated with HSV-2(G) and nuclear extracts were prepared and analyzed for the presence of the viral tegument protein VP16 by Western blotting; blots were probed with antibodies to histone-H1 as a nuclear extract control. […]
Two independent approaches were applied to determine if Akt contributes to viral entry. […] After incubation for 45 minutes, nuclear extracts were prepared and evaluated for VP16 by Western blot; histone H1 was included as a control for the nuclear extracts (FIG. 3b). […] Viral capsids were readily detected in the majority of siControl cells (73% and 82% 1 and 4 h pi, respectively), whereas viral capsids were detected in few siAkt cells (7% and 5.5%) (FIG. 3c). […]
Confocal microscopy: Viral entry was also monitored by confocal microscopy. […]

Series [6] relates to HSV-2. The series can be described thus: HSV-2 plaque assay after pretreatment with Akt pharmacological inhibitors. Format: cell-based. The conditions noted are these: CaSki, SK-N-SH or HaCAT cells pretreated 15 min with drug, infected with HSV-2 1 h, plaques counted 48 h pi. The protocol: FIG. 8A-8B: Pharmacological inhibitors of Akt signaling inhibit HSV-2 plaque formation. Cells (CaSki, SK-N-SH, or HaCAT) cells were pretreated for 15 minutes with each of the indicated drugs and then challenged with serial dilutions of HSV-2. The inoculum (and drug) were removed after 1 h, and then cells were overlaid with fresh medium; plaques were counted after 48 h incubation. Results are presented as percent pfu relative to control wells (treated with 0.1% DMSO) (a). Alternatively, cells were treated for 24 h with drugs alone (0.01% nonoxynol-9 (N9) is included as a positive toxicity control) and then cell viability determined by MTT assay (b).
Akt is a potential target for HSV treatment: A series of Akt pharmacological inhibitors being developed as adjunct therapy for cancer including MK-2206, an allosteric Akt inhibitor (Yap, 2011); inhibitor VIII, which binds to the pleckstrin homology domain of Akt and prevents subsequent phosphorylation as well as translocation of Akt to the plasma membrane (Calleja, 2009); miltefosine, a drug licensed for treatment of leishmaniasis and other protozoal infections that blocks Akt phosphorylation (Ruiter, 2003), and perifosine, a structural analogue of miltefosine in Phase 3 clinical trials for treatment of several cancers (Richardson, 2012) were tested. […]

In series [7] the test system is HSV-1 and HSV-2. The conditions noted are these: prior studies (Cheshenko, 2003; 2007); cited from earlier work.
The subject of series [8] is HSV-2. Nature of the series: VP16 nuclear transport as surrogate of viral entry. Format: cell-based. The conditions noted are these: 1 μM, treated immediately prior to infection, 1 pfu/cell. The procedure: as §1
FIG. 4A-4E: Akt is required for HSV-induced calcium release and treatment with the ionophore, ionomycin, partially overcomes the block to infection in Akt-silenced cells. […] Transfected cells were loaded with fura-2, infected with purified HSV-2 (moi 2 pfu/cell) or mock-infected and the kinetics of Ca^2+ response monitored. The mean intracellular [Ca^2+] for 5×10^4 cells over the first 30 minutes was quantified; control cells were also pretreated with wortmannin or miltefosine and then infected with HSV-2 (b). […]

Entries after “also recorded” stand apart in the source; their conditions may differ.

Take `CCCCCCCCCCCCCCCCOP(=O)([O-])OCC[N+](C)(C)C` [miltefosine, 2-(hexadecoxy-oxido-phosphoryl)oxyethyl-trimethyl-azanium]: the “activity against acyclovir susceptible and acyclovir resistant viruses in a plaque assay” value in series [1] was “active against acyclovir susceptible and acyclovir resistant viruses”. Moreover, in series [2] (CaSki cells pretreated with drug (wortmannin 5 nM), HSV-2(G) moi 2 pfu/cell, first hour), the “HSV-induced Ca2+ response” value is “blocked the HSV-induced Ca^2+ response; also recorded: prevented viral induced Ca^2+ response”. The “viral induced phosphorylation of Akt” value in series [3] is reported as “blocked viral induced phosphorylation of Akt”. The “cytotoxicity in ganglion ex vivo co-culture” value in series [4] (cells cultured in drug for one week) is recorded as “No cytotoxicity was observed”. Moreover, the “viral amplification in ganglion explant co-culture” value in series [4] (mouse sacral ganglia day 7 after vaginal HSV-2, co-cultured with Vero cells, 20 μM) is listed as “blocked viral amplification”. Also, the “viral entry (confocal imaging with GFP labeled virus)” value in series [5] is recorded as “prevented viral entry”. For the same compound, the “inhibition of HSV infection (plaque formation, pfu relative to control wells)” value in series [6] is reported as “most potent”.
As to `NCCOB(c1ccccc1)c1ccccc1` [2-aminoethoxydiphenyl borate], in series [7], the “increase in [Ca2+] triggered by HSV” value is given as “blocked” and the viral entry result is “blocked”.
Consider `C[C@H](CCC(=O)O)C[C@H](C)C[C@H](C)C(=O)/C=C(\O)[C@H](C)C[C@H](C)C/C=C/[C@@H](C)[C@@H](O)[C@@H](C)[C@@H](O)C[C@@H]1CC[C@@](C)([C@H]2CC[C@@](C)([C@@H](C)O)O2)O1` [ionomycin], for which the “Ca2+ release from siRNA-transfected cell populations” value in series [2] (1 μM, confocal imaging and fluorometry) is “triggered the release of a comparable amount of Ca2+”. Further, in series [8], the “susceptibility to HSV entry in Akt-silenced cells (nuclear VP16)” value is on record as “partially restored the susceptibility to HSV entry”.

Source of the values: US9333219B2, “Method to treat or prevent herpesvirus infections” (ALBERT EINSTEIN COLLEGE OF MEDICINE OF YESHIVA UNIVERSITY, priority 2012, dated 2016).
